Experimental data reported in the supplement of paper PMC10307832.

Key:
Experiment in all cases: relative viability (nuclei count vs DMSO), 5 days (fraction); higher = more cells survive
[1] = compound: CC(C)C[C@H](NC(=O)[C@H](Cc1ccccc1)NC(=O)c1cnccn1)B(O)O [Bortezomib] + N=C(N)NC(=N)NCCc1ccccc1 [Phenformin] (partner 250 µM)
How it was run: (§1)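 Five library-drug doses in √10 steps were combined with a fixed anchor-drug dose, or a single drug was given alone, by pin tool to lung cancer cell lines in 1536-well plates the day after seeding. Nuclei were stained and counted after 5 days. Relative viability is the nuclei count in treated wells over that in vehicle wells, taken as the median of duplicate plates.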

[2] = compound: CC1=CC(=NN1)NC2=CC(=NC(=N2)/C=C/C3=CC=CC=C3)N4CCN(CC4)C + Cc1nc(Nc2ncc(C(=O)Nc3c(C)cccc3Cl)s2)cc(N2CCN(CCO)CC2)n1 [Dasatinib] (partner 0.075 µM)
How it was run: as §1

[3] = compound: COC1=CC(c2cc3ccccc3[nH]2)=N/C1=C\c1[nH]c(C)cc1C [Obatoclax] + COc1cc2c(Oc3ccc(NC(=O)C4(C(=O)Nc5ccc(F)cc5)CC4)cc3F)ccnc2cc1OCCCN1CCOCC1 [Foretinib] (partner 0.25 µM)
How it was run: as §1

[4] = compound: COC1=CC(c2cc3ccccc3[nH]2)=N/C1=C\c1[nH]c(C)cc1C [Obatoclax] + Nc1ncn([C@H]2C[C@H](O)[C@@H](CO)O2)c(=O)n1 [Decitabine] (partner 2 µM)
How it was run: as §1

Row | Cell Line | relative viability ([1]; first compound 0.0002 µM) | relative viability ([1]; first compound 0.000632 µM) | relative viability ([1]; first compound 0.002 µM) | relative viability ([1]; first compound 0.006325 µM) | relative viability ([1]; first compound 0.02 µM) | relative viability ([2]; first compound 0.08 µM) | relative viability ([2]; first compound 0.253 µM) | relative viability ([2]; first compound 0.8 µM) | relative viability ([2]; first compound 2.53 µM) | relative viability ([2]; first compound 8 µM) | relative viability ([3]; first compound 0.01 µM) | relative viability ([3]; first compound 0.03162 µM) | relative viability ([3]; first compound 0.1 µM) | relative viability ([3]; first compound 0.3162 µM) | relative viability ([3]; first compound 1 µM) | relative viability ([4]; first compound 0.01 µM) | relative viability ([4]; first compound 0.03162 µM) | relative viability ([4]; first compound 0.1 µM) | relative viability ([4]; first compound 0.3162 µM) | relative viability ([4]; first compound 1 µM)
1 | NCI-H2023 | 0.494 | 0.411 | 0.389 | 0.0877 | 0.0739 | 0.575 | 0.588 | 0.555 | 0.0936 | 0.0621 | 0.944 | 0.841 | 0.804 | 0.804 | 0.316 | 0.216 | 0.203 | 0.222 | 0.159 | 0.0785
2 | NCI-H358 | 0.316 | 0.305 | 0.354 | 0.0576 | 0.0696 | 0.171 | 0.23 | 0.173 | 0.08 | 0.0626 | 0.664 | 0.847 | 0.668 | 0.415 | 0.311 | 0.213 | 0.187 | 0.232 | 0.157 | 0.137
3 | SW 1573 | 0.384 | 0.349 | 0.205 | 0.0918 | 0.0612 | 0.545 | 0.578 | 0.517 | 0.0958 | 0.0582 | 0.866 | 0.732 | 0.816 | 0.81 | 0.6 | 0.432 | 0.434 | 0.437 | 0.139 | 0.194
4 | NCI-H1993 | 0.489 | 0.458 | 0.512 | 0.419 | 0.464 | 0.613 | 0.527 | 0.565 | 0.44 | 0.37 | 0.766 | 0.757 | 0.807 | 0.771 | 0.876 | 0.659 | 0.545 | 0.618 | 0.611 | 0.612
